Experimental data: patent US12569557B2, “Targeting moDC to enhance vaccine efficacy on mucosal surface” (UNIVERSITY OF FLORIDA RESEARCH FOUNDATION, INCORPORATED, priority 2018, dated 2026)
“Also recorded” adds a separate entry of the source.

How the values were obtained:
TNFR2 = assay type: in vivo, mice
RelA, RelB, TBK1 = assay: pRelA, pRelB and p-TBK1 in lung DC subsets after intranasal CDG, flow cytometry; assay type: in vivo, mice
moDCs = assay: Antigen presentation by lung moDCs after intranasal CDG and Eα-OVA (YAE mAb); assay type: in vivo, C57BL/6 mice; settings: CDG and Eα-OVA i.n.
Text: How does non-migratory moDCs (FIGS. 1D & 12B)^25,33 promote CDG-induced antibody responses? moDCs were efficient at antigen processing (FIG. 8D). We first asked if they presented antigen on cell surface. We intranasally administered C57BL/6 mice with CDG and Eα-OVA, and detected I-A^b/Eα^+ cells with the YAE mAb. Indeed, CDG increased YAE^+ moDCs in vivo (FIG. 9A).

[1] = cited from earlier work
[2] = test system: H5N1 influenza, Acinetobacter baumannii, Staphylococcus aureus, Klebsiella pneumoniae and Streptococcus pneumoniae; settings: cited from earlier work
mTNF = assay: Cell surface mTNF expression on lung DCs detected with TNFR2-Fc recombinant protein; assay type: in vivo; settings: WT mice, i.n. CDG 16 hours
Method: We intranasally administered CDG to WT mice for 16 hours and detected cell surface mTNF expression using […] recombinant protein (FIG. 8A).
The following Abs from Biolegend were used in the flow cytometry: CD80 (16-10A1), CD86 (GL1), CD11B (M1/70), CD11C (N418), FcεRIa (MAR-1), MHC II (M5/114.15.2), CD103(2E7), CD24 (m1/69), CD64 (x54-5/7.1), CCR7 (4B12), TNF (MP6-XT22), TNFR2 (TR75-89), PD-L1 (10F.9G2), BTLA (8F4), PD-L2 (TY25), CD301b (URA-1), CX3CR1 (SA011F11), CD172a (P84), CD44 (IM7). The following Abs were from Cell Signaling: p-TBK1 (ser172, d52c2), p-RelB (ser552, d41b9), p-RelA (ser536, cat #4887S). The following reagents were from Sino Biological: TNFR2 Ab (cat #50128-R112-A), TNFR2-Fc (mouse TNFR2 extracellular domain, Met 1-Gly 258, was fused with the Fc region of human IgG1 at the C-terminus, cat #50128-M02H), human IgG1 Fc (cat #10702-HNAH). Alexa Fluor®488 mouse anti-human IgG1 Fc was from Invitrogen (cat #A-10631). FITC-CDG (2′-Fluo-AHC-CDG) was from Biolog (cat #F009). Cell sorting was performed on the BD FACSAriaIII Flow Cytometer and Cell Sorter. After sorting, dendritic cells were CFSE labeled, according to the protocol from the manufacturer (Invitrogen).

anti-PspA IgG and IgA = assay: Intranasal CDG/PspA immunization: PspA-specific antibodies in serum and BALF by ELISA; assay type: in vivo, mice
Method: (§1) Groups of mice (4 per group) were intranasally vaccinated with CDG (5 μg, Invivogen, cat #vac-cdg) adjuvanted PspA (2 μg, BEI Resources) or PspA alone^17. Mice were immunized twice at 14 days interval. For intranasal vaccination, animals were anesthetized using isoflurane in an E-Z Anesthesia system (Euthanex Corp, Palmer, Pa.). PspA, with or without CDG was administered in 20 μl saline. Sera were collected 14 days after the last immunization. The PspA-specific Abs were determined by ELISA. Secondary Abs used were anti-mouse IgG1-HRP (Southern Biotech, cat #1070-05), anti-mouse IgG2C-HRP (Southern Biotech, cat #1079-05), and anti-mouse IgA-HRP (Southern Biotech, cat #1040-05). To determine Ag-specific Th response, splenocytes from PspA or CDG+PspA immunized mice were stimulated with 5 μg/ml PspA for four days in culture. Th1, Th2, and Th17 cytokines were measured in the supernatant by ELISA.

lung DCs = assay: Lung DC / alveolar macrophage maturation (CD86, CCR7) after intranasal CDG, flow cytometry; assay type: in vivo, mice
lung TNF [3] = assay: Detection of lung cytokine production after intranasal CDG (ELISA of lung homogenates); assay type: in vivo, mice
Method: Mice were intranasally administered 5 μg CDG, then sacrificed after 5 hrs by C02 asphyxiation^17. Lungs were perfused with cold PBS. The harvested lungs were washed with PBS once, then stored in 0.7 ml Tissue protein extraction reagent (T-PER) (Thermo Scientific, cat #78510) containing protease inhibitors (Roche, cat #11836153001) at −80° C. Later, the lung was thawed on ice and homogenized with Minilys® (Precellys, 5,000 RPM for 30 sec) using Precellys lysing kit (Precellys, cat #KT03961). Lung homogenates were transferred to a 1.5 ml tube and spun at 14,000 g for 30 min at 4° C. The supernatant was collected and analyzed for TNF production by ELISA (eBioscience, cat #88-7324).

[4] = test system: PspA-specific Th1, Th2, Th17 responses; assay: Ex vivo recall of PspA-specific Th responses in lung cells and splenocytes of immunized mice; settings: immunized IRF4fl/flCD11ccre mice
Method: as §1

lung TNF [5] = settings: administered intranasally; cited from earlier work

Structure (SMILES): Nc1nc2c(ncn2[C@@H]2O[C@@H]3COP(=O)(O)O[C@H]4[C@@H](O)[C@H](n5cnc6c(=O)[nH]c(N)nc65)O[C@@H]4COP(=O)(O)O[C@H]3[C@H]2O)c(=O)[nH]1 [CDG, cyclic di-GMP]
- TNFR2 expression on moDCs (TNFR2; WT mice): induced
- TNFR2 expression on lung cDC1 (TNFR2; WT mice, i.n. CDG 16 hrs): dramatically increased
- PD-L1 expression on transferred TNFR2+ and TNFR2− cDC2 (TNFR2; cDC2 subsets transferred into MPYS−/− mice, CDG i.n. 16 hrs): did not affect
- TBK1 activation (p-TBK1) in cDC2 (RelA, RelB, TBK1; TNFR2−/− mice): activated
- RelA activation in lung cDC1 (RelA, RelB, TBK1; i.n. CDG): activated RelA
- RelA and RelB activation in lung moDCs (RelA, RelB, TBK1; i.n. CDG): activated both RelA and RelB
- RelB activation in lung cDC2 (RelA, RelB, TBK1; i.n. CDG): activated RelB; also recorded: further activate RelB
- YAE+ moDCs (I-Ab/Eα presentation) (moDCs): increased
- Over-inflammatory responses in the lung ([1]; intranasal adjuvant): does not induce over-inflammatory responses
- Acute toxicity as a mucosal adjuvant ([1]; mice): does not cause acute toxicity
- Adjuvant activity / response in MPYS−/− mice ([2]; MPYS−/− mice): do not respond
- Cancer vaccine adjuvant activity ([2]; animal models): showed cancer vaccine adjuvant activity
- Activation of Th1 and Th2 immune response vs LPS, CpG ODN or aluminum salt based adjuvant ([2]; mice): more potent activator
- mTNF expression on TNFR2+ cDC2 (mTNF): expressed little mTNF
- mTNF expression on TNFR2− cDC2 (mTNF): main mTNF^+ cDC2 cells
- Anti-PspA Abs in BALF and serum (anti-PspA IgG and IgA; IRF4fl/flCD11ccre mice, PspA with CDG i.n.): did not induce
- Humoral and cellular immune responses (anti-PspA IgG and IgA; TNFR1−/− mice): reduced humoral and cellular immune responses
- Adjuvant activity (humoral and cellular responses) (anti-PspA IgG and IgA; TNFR2−/− mice): completely lost its adjuvant activity
- CD86 on lung moDCs (lung DCs; Batf3−/− mice): unaltered
- CD86 on lung moDCs (lung DCs; IRF4fl/flCD11ccre mice): failed to upregulate CD86
- Activation of lung DCs (CD86) (lung DCs; MPYSfl/flLysMcre mice): unaltered
- CD86 expression on moDCs (lung DCs; MPYSfl/flLysMcre mice): normal levels of CD86 expression
- CD86 on lung cDC1 (lung DCs; RelBfl/flCD11ccre mice): upregulated CD86
- CD86 on lung cDC2 (lung DCs; RelBfl/flCD11ccre mice): failed to upregulate CD86
- CD86 on lung moDCs (lung DCs; RelBfl/flCD11ccre mice): induced
- CD86 and CCR7 expression on cDC1 (lung DCs; TNFR2−/− mice): induced
- CD86 on lung moDCs (lung DCs; TNFR2−/− mice): did not upregulate CD86
- CD86 or CCR7 expression in lung cDC2 (lung DCs; TNFR2−/− mice): did not enhance
- CD86 expression on alveolar macrophages (lung DCs; WT mice, CDG treatment i.n.): did not increase expression of CD86
- CCR7 expression on lung moDCs (lung DCs; WT mice, i.n. CDG): did not increase CCR7
- CD86 and CCR7 expression in lung cDC1 and cDC2 (lung DCs; WT mice, i.n. CDG): increased
- CD86 expression on lung moDCs (lung DCs; WT mice, i.n. CDG): increased expression of CD86
- Migration of activated moDCs to lung draining lymph nodes (lung DCs; WT mice, i.n. CDG): did not migrate to dLNs
- CDG-induced lung MCP-1 production (lung TNF [3]; Batf3−/− mice (lack cDC1)): largely absent
- CDG-induced lung production of TNF, IL-1β and IL-12p70 (lung TNF [3]; IRF4fl/flCD11ccre mice (lack cDC2)): dramatically reduced
- CDG-induced lung TNF production (lung TNF [3]; TBK1fl/flVavCre mice): dramatically reduced
- Lung TNF (lung TNF [3]; TNFR2−/− mice): induced
- PspA-specific Th1, Th2, Th17 responses, ex vivo recall in lung cells and splenocytes [4]: did not show PspA-specific Th1, Th2 or Th17 responses
- Lung production of TNF, IL-1β and IL-10 (lung TNF [5]): induced
